Among the data in US20240287052A1, “NOVEL OXAZOLE DERIVATIVE AND PHARMACEUTICAL COMPOSITION FOR PREVENTING OR TREATING ALLERGIC DISEASES COMPRISING THE SAME” (AZCURIS CO., LTD., priority 2021, published 2024) are inhibition values, retold here.

The term inhibition denotes the drop in the measured response relative to a control, in per cent.

The assay deals with T1, IL33 and ST2 binding (Homo sapiens, UniProt O95760).
T1 sequence (O95760 112-270 limits assumed): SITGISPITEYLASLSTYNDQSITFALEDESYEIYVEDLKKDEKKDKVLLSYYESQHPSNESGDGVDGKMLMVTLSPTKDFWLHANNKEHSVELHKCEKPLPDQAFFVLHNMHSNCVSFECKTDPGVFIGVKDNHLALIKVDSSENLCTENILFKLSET

Like-named read-outs stand apart in the source and are kept apart here.
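Note: plate ELISA with coated Flag-tagged human IL-33 and His-tagged human ST2, bound ST2 detected by anti-His HRP and TMB absorbance at 450 nm, 2 h compound incubation.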

Procedure: 100 nM of Flag tagged IL-33 human recombinant protein was prepared in 1× coating buffer (Biolegend) and placed in a 96 well microplate (Coming) using a Multichannel pipette (Gilson) and coated for at least 12 hours at 4° C.
After washing three times with PBST (1×PBS (Welgene), 1% Tween 20 (sigma)), it was reacted with 1% BSA (Bovogen) blocking buffer for 1 hour at room temperature.
Samples containing 200 nM of His-tagged ST2 human recombinant protein and 60 μM or 200 μM Example synthetic compounds were prepared, added in equal volumes, and reacted for at least 2 hours at room temperature.
After washing three times with PBST (1×PBS (Welgene), 1% Tween 20 (sigma)), anti-His HRP (BioLegend) antibody was diluted 5000:1 and reacted for at least 1 hour at room temperature.
After washing three times with PBST (1×PBS (Welgene), 1% Tween 20 (sigma)), TMB substrate solution (Thermo) was added and reacted for more than 5 minutes. The reaction was stopped by adding 1 N HCl (Samchun) and the absorbance value was obtained at 450 nm after orbital shaking for 5 s with a Microplate reader (Tecan, Spark®).
The results derived from the program linked to the microplate reader were analyzed using an Excel program. IL33-ST2 binding rate (binding %) was calculated by averaging the three values obtained in triplicate, subtracting the positive control value, and converting the negative control value to 100%. The inhibition % value of each compound was obtained by subtracting the IL33-ST2 binding % from 100%, and the error range of triplicate was also obtained and reflected in the inhibition graph of the compound.

For the compound `O=C(NCc1ccccc1)c1nc(-c2ccc(C(F)(F)F)cc2)oc1-c1ccccc1[N+](=O)[O-]` [Compound 164, N-Benzyl-5-(2-nitrophenyl)-2-(4-(trifluoromethyl)phenyl)oxazole-4-carboxamide], the inhibition is 9% (30 µM) and 4% (100 µM).
The matching figures for `O=C(Nc1ccc(OCc2ccccc2)cc1)c1nc(-c2ccc(C(F)(F)F)cc2)oc1-c1ccccc1[N+](=O)[O-]` [Compound 165, N-(4-(Benzyloxy)phenyl)-5-(2-nitrophenyl)-2-(4-(trifluoromethyl)phenyl)oxazole-4-carboxamide]: 10% and 13%.
For `COc1ccc(CNC(=O)c2nc(-c3ccc(C(F)(F)F)cc3)oc2-c2ccccc2[N+](=O)[O-])cc1` [Compound 166, N-(4-Methoxybenzyl)-5-(2-nitrophenyl)-2-(4-(trifluoromethyl)phenyl)oxazole-4-carboxamide], the inhibition (30 µM) worked out at 14% and the inhibition (100 µM) was 5%.
The matching figures for `CC(C)N(CCN1CCN(C(=O)c2nc(-c3ccc(C(F)(F)F)cc3)oc2-c2ccccc2[N+](=O)[O-])CC1)C(C)C` [Compound 167, (4-(2-(Diisopropylamino)ethyl)piperazin-1-yl)(5-(2-nitrophenyl)-2-(4-(trifluoromethyl)phenyl)oxazol-4-yl)methanone]: -24% and -9%.
The like results for `CC(C)N1CCN(C(=O)c2nc(-c3ccc(C(F)(F)F)cc3)oc2-c2ccccc2[N+](=O)[O-])CC1` [Compound 168, (4-Isopropylpiperazin-1-yl)(5-(2-nitrophenyl)-2-(4-(trifluoromethyl)phenyl)oxazol-4-yl)methanone] were, in that order, 12% and -12%.
The matching figures for `O=C(c1nc(-c2ccc(C(F)(F)F)cc2)oc1-c1ccccc1[N+](=O)[O-])N1CCN(CCO)CC1` [Compound 169, (4-(2-Hydroxyethyl)piperazin-1-yl)(5-(2-nitrophenyl)-2-(4-(trifluoromethyl)phenyl)oxazol-4-yl)methanone]: -4% and 7%.
For the compound `O=C(c1nc(-c2ccc(C(F)(F)F)cc2)oc1-c1ccccc1[N+](=O)[O-])N1CCN(CCN2CCCC2)CC1` [Compound 170, (5-(2-Nitrophenyl)-2-(4-(trifluoromethyl)phenyl)oxazol-4-yl)(4-(2-(pyrrolidin-1-yl)ethyl)piperazin-1-yl)methanone], the inhibition is, setting by setting: (30 µM) 3%; (100 µM) 2%.
The like results for `CC(C)(C)OC(=O)N1CCN(CCNC(=O)c2nc(-c3ccc(C(F)(F)F)cc3)oc2-c2ccccc2[N+](=O)[O-])CC1` [Compound 172, tert-Butyl-4-(2-(5-(2-nitrophenyl)-2-(4-(trifluoromethyl)phenyl)oxazole-4-carboxamido)ethyl)piperazine-1-carboxylate] were, in that order, 51% and 50%.
The like results for `O=C(NCCN1CCCCC1)c1nc(-c2ccc(C(F)(F)F)cc2)oc1-c1ccccc1[N+](=O)[O-]` [Compound 173, 5-(2-Nitrophenyl)-N-(2-(piperidin-1-yl)ethyl)-2-(4-(trifluoromethyl)phenyl)oxazole-4-carboxamide] were, in that order, 54% and 60%.
Take `CC(=O)Nc1ccc(NC(=O)c2nc(-c3ccc(C(F)(F)F)cc3)oc2-c2ccccc2[N+](=O)[O-])cc1` [Compound 175, N-(4-Acetamidophenyl)-5-(2-nitrophenyl)-2-(4-(trifluoromethyl)phenyl)oxazole-4-carboxamide]: the inhibition came to 27% (30 µM) and 53% (100 µM).
The like results for `O=C(NCCc1ccc(O)cc1)c1nc(-c2ccc(C(F)(F)F)cc2)oc1-c1ccccc1[N+](=O)[O-]` [Compound 176, N-(4-Hydroxyphenethyl)-5-(2-nitrophenyl)-2-(4-(trifluoromethyl)phenyl)oxazole-4-carboxamide] were, in that order, 27% and 36%.
The like results for `CN(C)CCNC(=O)c1nc(-c2cccc(OC(F)(F)F)c2)oc1-c1ccccc1` [Compound 199, N-(2-(Dimethylamino)ethyl)-5-phenyl-2-(3-(trifluoromethoxy)phenyl)oxazole-4-carboxamide] were, in that order, 7% and 2%.
The like results for `CN1CCN(CCNC(=O)c2nc(-c3cccc(OC(F)(F)F)c3)oc2-c2ccccc2)CC1` [Compound 200, N-(2-(4-Methylpiperazin-1-yl)ethyl)-5-phenyl-2-(3-(trifluoromethoxy)phenyl)oxazole-4-carboxamide] were, in that order, 5% and 0%.
In the case of `CN(C)CCNC(=O)c1nc(-c2cccc(OC(F)(F)F)c2)oc1-c1ccccc1[N+](=O)[O-]` [Compound 201, N-(2-(Dimethylamino)ethyl)-5-(2-nitrophenyl)-2-(3-(trifluoromethoxy)phenyl)oxazole-4-carboxamide], the inhibition is, setting by setting: (30 µM) -7%; (100 µM) -5%.
The matching figures for `CN1CCN(CCNC(=O)c2nc(-c3cccc(OC(F)(F)F)c3)oc2-c2ccccc2[N+](=O)[O-])CC1` [Compound 202, N-(2-(4-Methylpiperazin-1-yl)ethyl)-5-(2-nitrophenyl)-2-(3-(trifluoromethoxy)phenyl)oxazole-4-carboxamide]: 7% and 32%.
For the compound `CN1CCN(CCNC(=O)c2nc(-c3ccc(OC(F)(F)F)cc3)oc2-c2ccccc2)CC1` [Compound 204, N-(2-(4-Methylpiperazin-1-yl)ethyl)-5-phenyl-2-(4-(trifluoromethoxy)phenyl)oxazole-4-carboxamide], the inhibition reads like this: (30 µM) 1%; (100 µM) 36%.
In the case of `CN(C)CCNC(=O)c1nc(-c2ccc(OC(F)(F)F)cc2)oc1-c1ccccc1[N+](=O)[O-]` [Compound 205, N-(2-(Dimethylamino)ethyl)-5-(2-nitrophenyl)-2-(4-(trifluoromethoxy)phenyl)oxazole-4-carboxamide], the inhibition by setting is: (30 µM) -11%; (100 µM) 4%.
As to `CN1CCN(CCNC(=O)c2nc(-c3ccc(OC(F)(F)F)cc3)oc2-c2ccccc2[N+](=O)[O-])CC1` [Compound 206, N-(2-(4-methylpiperazin-1-yl)ethyl)-5-(2-nitrophenyl)-2-(4-(trifluoromethoxy)phenyl)oxazole-4-carboxamide], the inhibition by setting is: (30 µM) 23%; (100 µM) 49%.
The like results for `COc1cccc(-c2nc(C(=O)NCCN(C)C)c(-c3ccccc3)o2)c1` [Compound 208, N-(2-(Dimethylamino)ethyl)-2-(3-methoxyphenyl)-5-phenyloxazole-4-carboxamide] were, in that order, 19% and 55%.
The like results for `COc1cccc(-c2nc(C(=O)NCCN(C)C)c(-c3ccccc3[N+](=O)[O-])o2)c1` [Compound 210, N-(2-(Dimethylamino)ethyl)-2-(3-methoxyphenyl)-5-(2-nitrophenyl)oxazole-4-carboxamide] were, in that order, -11% and -19%.
The matching figures for `COc1cccc(-c2nc(C(=O)NCCN3CCN(C)CC3)c(-c3ccccc3[N+](=O)[O-])o2)c1` [Compound 211, 2-(3-methoxyphenyl)-N-(2-(4-methylpiperazin-1-yl)ethyl)-5-(2-nitrophenyl)oxazole-4-carboxamide]: 13% and 20%.
Consider `COc1ccc(-c2nc(C(=O)NCCN(C)C)c(-c3ccccc3)o2)cc1` [Compound 212, N-(2-(Dimethylamino)ethyl)-2-(4-methoxyphenyl)-5-phenyloxazole-4-carboxamide], for which the inhibition (30 µM) was -26% and the inhibition (100 µM) was -22%.
The like results for `COc1ccc(-c2nc(C(=O)NCCN3CCN(C)CC3)c(-c3ccccc3)o2)cc1` [Compound 213, 2-(4-Methoxyphenyl)-N-(2-(4-methylpiperazin-1-yl)ethyl)-5-phenyloxazole-4-carboxamide] were, in that order, -34% and -9%.
The matching figures for `COc1ccc(-c2nc(C(=O)NCCN(C)C)c(-c3ccccc3[N+](=O)[O-])o2)cc1` [Compound 214, N-(2-(Dimethylamino)ethyl)-2-(4-methoxyphenyl)-5-(2-nitrophenyl)oxazole-4-carboxamide]: -28% and -49%.
The like results for `COc1ccc(-c2nc(C(=O)NCCN3CCN(C)CC3)c(-c3ccccc3[N+](=O)[O-])o2)cc1` [Compound 215, 2-(4-Methoxyphenyl)-N-(2-(4-methylpiperazin-1-yl)ethyl)-5-(2-nitrophenyl)oxazole-4-carboxamide] were, in that order, -12% and 33%.
Regarding `COc1ccc(-c2nc(C(=O)N3CCN(CCN(C)C)CC3)c(-c3ccccc3[N+](=O)[O-])o2)cc1` [Compound 216, (4-(2-(Dimethylamino)ethyl)piperazin-1-yl)(2-(4-methoxyphenyl)-5-(2-nitrophenyl)oxazol-4-yl)methanone], the inhibition (30 µM) came out at 46% and the inhibition (100 µM) was determined as 84%.
The like results for `COc1ccc(-c2nc(C(=O)N3CCN(CCN(C)C)CC3)c(-c3ccc([N+](=O)[O-])cc3)o2)cc1` [Compound 218, (4-(2-(Dimethylamino)ethyl)piperazin-1-yl)(2-(4-methoxyphenyl)-5-(4-nitrophenyl)oxazol-4-yl)methanone] were, in that order, 32% and 39%.
The matching figures for `COc1ccc(-c2nc(C(=O)NCCN3CCN(C)CC3)c(-c3ccc([N+](=O)[O-])cc3)o2)cc1` [Compound 219, 2-(4-methoxyphenyl)-N-(2-(4-methylpiperazin-1-yl)ethyl)-5-(4-nitrophenyl)oxazole-4-carboxamide]: 11% and 44%.
Take `CN(C)CCNC(=O)c1nc(-c2cccc(F)c2)oc1-c1ccccc1` [Compound 220, N-(2-(Dimethylamino)ethyl)-2-(3-fluorophenyl)-5-phenyloxazole-4-carboxamide]: the inhibition reads like this: (30 µM) -2%; (100 µM) -14%.
